Experimental data from PMC6081404, “Active Transport of Peptides Across the Intact Human Tympanic Membrane” (Scientific Reports, 2018).

Test system: rat TM fragment
Assay: Integrity of the TM fragment and seal, trypan-blue dye transit into the lower chamber
Type: in vitro ADME
Settings: 0.5% trypan-blue in upper chamber, immediately and after 1–4 hours, visual and absorbance at 590 nm
Text: Rat TMs were interposed between the two chambers.

dye transit into the lower chamber across an intact TM fragment: excluded from the lower chamber
SMILES: Cc1cc(-c2ccc(/N=N/c3c(S(=O)(=O)O)cc4cc(S(=O)(=O)O)cc(N)c4c3O)c(C)c2)ccc1/N=N/c1c(S(=O)(=O)O)cc2cc(S(=O)(=O)O)cc(N)c2c1O [trypan-blue]
